Target: T1, human CaV3.2 (Homo sapiens, UniProt O95180)
T1 construct: expressed in transfected cells
Test: IonWorks screen for hCaV3.2 (T-type calcium current, voltage clamp)
Assay type: cell-based
Settings: IonWorks HT, HEK cells, 10 min incubation, pulse 10, 8-point curve; read-out: IW hCav3 2 IC50
From the text: Functional evaluation of voltage-gated ion channels can be used to determine potency and/or single concentration efficacy of the Azetidinone Derivatives of the present invention. Two different methodologies can be used to measure ion currents: the lonWorks HT (Molecular Devices, Sunnyvale, Calif.) a moderate throughput voltage clamp screening platform that utilizes 96-well compound plates and conventional whole cell patch clamp for lower throughput, higher fidelity determinations.
HEK cells are transiently transfected and then selected for stable heterologous expression of different channel proteins of interest. Calcium channel cell lines expressed a resting potassium current, human Kir2.1, and the pore forming α-subunit of voltage-gated calcium channels. In the case of CaV2.1 cells the auxiliary subunit, β2a, is also expressed. Calcium channel lines that are used to generate the data will express either human CaV3.2, rat CaV3.2 or human CaV2.1. The human heart sodium channel, hNaV1.5, are stably expressed in CHO cells.
Cell lines can be grown at 37° C. in humidified incubators, equilibrated with 95% air/5% CO2. CHO cells can be grown in Ham's F-12 medium. HEK cells can be grown in DMEM. All media are supplemented with 10% heat-inactivated fetal bovine serum, penicillin, streptomycin and appropriate selection antibiotics (zeocin, geneticin and/or hygromycin). Cells are passaged when 80% confluent or less.
IonWorks Screen for hCaV3.2
The extracellular buffer for experiments using this instrument contained the following (mM) (NaCl 125, HEPES 10, KCl 5.4, CaCl2 1.8, MgCl2 1.8, 0.2 BaCl2 pH 7.35). The lonWorks uses amphotericin to gain electrical access to the cell interior. The internal solution contained (mM concentrations): 130 K-gluconate, 20 KCl, 5 HEPES-KOH (pH 7.25), 2 CaCl2, 1 MgCl2. Amphotericin added at 5 mg in 65 mL when present (in 650 μL DMSO). All internal and external solutions for this experiment contain 1% DMSO. Cells were acutely trypsinized from a T-75 flask and resuspended in extracellular buffer at a density of 2×10^5 cells/mL.
Experiments were performed at room temperature. Transmembrane potential was held at −100 mV for 5 seconds prior to running the voltage protocol. During this time leak currents were measured during a step to −110 mV (200 milliseconds). T-type calcium currents were activated with a 250 millisecond step to −20 mV. This depolarization step was repeated for a total of 10 pulses with an interpulse interval of 1 second. Data were excluded if the following acceptance criteria were not met: total resistance for the pre-compound scan>65 MΩ, pre-compound current>250 pA, post compound total resistance>50 MΩ.
T-type currents were measured as the peak inward current minus the current at the end of the 250 msec step to −20 mV. After the recoding configuration was established there was a pre-compound measurement of current amplitude. Compound was added as a 3× solution containing 1% DMSO. After incubation with compound for 10 minutes currents were measured again. The current amplitude after compound addition was divided by the pre-compound current for pulse 10 to determine the fraction of current remaining after compound addition. For each compound, 8-point concentration-effect relationships were measured with ½ log serial dilutions.

T1 sequence (O95180 whole entry): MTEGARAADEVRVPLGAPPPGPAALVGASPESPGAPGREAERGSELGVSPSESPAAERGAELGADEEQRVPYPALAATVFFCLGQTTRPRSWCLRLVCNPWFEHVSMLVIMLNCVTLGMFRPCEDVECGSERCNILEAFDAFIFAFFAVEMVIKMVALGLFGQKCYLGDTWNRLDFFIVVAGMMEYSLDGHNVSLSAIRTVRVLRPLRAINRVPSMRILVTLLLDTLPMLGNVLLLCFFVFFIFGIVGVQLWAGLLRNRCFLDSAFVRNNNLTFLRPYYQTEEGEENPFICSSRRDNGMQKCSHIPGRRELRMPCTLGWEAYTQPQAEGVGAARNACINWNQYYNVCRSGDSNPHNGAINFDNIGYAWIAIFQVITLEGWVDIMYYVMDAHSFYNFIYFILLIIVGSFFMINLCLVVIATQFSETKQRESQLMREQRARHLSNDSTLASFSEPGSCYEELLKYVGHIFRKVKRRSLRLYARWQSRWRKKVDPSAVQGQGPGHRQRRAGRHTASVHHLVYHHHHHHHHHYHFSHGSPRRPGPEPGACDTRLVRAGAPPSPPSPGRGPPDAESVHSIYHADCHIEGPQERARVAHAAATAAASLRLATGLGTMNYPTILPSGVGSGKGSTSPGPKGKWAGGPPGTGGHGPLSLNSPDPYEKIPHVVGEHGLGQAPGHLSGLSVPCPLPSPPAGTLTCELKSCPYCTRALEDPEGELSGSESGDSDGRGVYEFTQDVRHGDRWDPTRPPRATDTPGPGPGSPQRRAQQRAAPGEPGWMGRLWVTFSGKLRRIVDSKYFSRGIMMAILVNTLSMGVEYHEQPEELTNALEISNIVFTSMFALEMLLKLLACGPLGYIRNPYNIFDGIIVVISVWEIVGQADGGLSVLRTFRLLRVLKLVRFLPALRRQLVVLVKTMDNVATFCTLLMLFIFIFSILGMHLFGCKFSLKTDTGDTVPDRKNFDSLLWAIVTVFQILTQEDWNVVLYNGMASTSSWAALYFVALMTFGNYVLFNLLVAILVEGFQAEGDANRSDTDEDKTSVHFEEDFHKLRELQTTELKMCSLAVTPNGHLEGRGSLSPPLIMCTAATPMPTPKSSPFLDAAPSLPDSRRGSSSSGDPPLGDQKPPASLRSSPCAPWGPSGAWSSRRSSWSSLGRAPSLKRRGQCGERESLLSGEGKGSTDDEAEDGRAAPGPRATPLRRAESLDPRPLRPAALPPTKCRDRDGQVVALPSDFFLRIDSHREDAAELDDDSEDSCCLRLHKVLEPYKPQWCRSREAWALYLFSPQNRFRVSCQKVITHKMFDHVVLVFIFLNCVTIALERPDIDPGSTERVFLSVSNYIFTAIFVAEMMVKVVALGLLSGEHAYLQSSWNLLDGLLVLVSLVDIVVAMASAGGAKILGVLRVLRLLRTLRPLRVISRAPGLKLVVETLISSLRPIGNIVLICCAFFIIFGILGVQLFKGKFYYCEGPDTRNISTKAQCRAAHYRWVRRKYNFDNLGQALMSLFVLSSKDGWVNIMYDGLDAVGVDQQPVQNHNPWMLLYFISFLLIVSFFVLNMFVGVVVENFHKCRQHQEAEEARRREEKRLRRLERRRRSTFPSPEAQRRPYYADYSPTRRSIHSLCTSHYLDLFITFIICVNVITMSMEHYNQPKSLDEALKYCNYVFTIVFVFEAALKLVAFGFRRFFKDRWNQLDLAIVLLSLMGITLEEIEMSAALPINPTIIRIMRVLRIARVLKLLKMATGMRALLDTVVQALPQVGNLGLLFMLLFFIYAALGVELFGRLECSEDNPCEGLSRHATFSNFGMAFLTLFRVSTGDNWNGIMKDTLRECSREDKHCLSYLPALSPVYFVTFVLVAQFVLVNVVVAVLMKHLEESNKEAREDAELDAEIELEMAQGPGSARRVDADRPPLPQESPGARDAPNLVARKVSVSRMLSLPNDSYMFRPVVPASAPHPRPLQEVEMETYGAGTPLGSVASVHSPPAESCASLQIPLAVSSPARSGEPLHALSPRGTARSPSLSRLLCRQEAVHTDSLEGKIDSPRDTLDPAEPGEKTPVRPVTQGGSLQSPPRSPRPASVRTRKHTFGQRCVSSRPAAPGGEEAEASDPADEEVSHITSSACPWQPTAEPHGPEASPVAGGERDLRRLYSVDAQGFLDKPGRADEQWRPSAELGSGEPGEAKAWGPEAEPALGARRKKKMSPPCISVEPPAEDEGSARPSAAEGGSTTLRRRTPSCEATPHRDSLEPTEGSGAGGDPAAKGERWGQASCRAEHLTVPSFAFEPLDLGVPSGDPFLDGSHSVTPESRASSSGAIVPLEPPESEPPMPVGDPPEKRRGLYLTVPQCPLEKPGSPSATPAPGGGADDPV

| Structure (SMILES) | IC50 |
| --- | --- |
| CC[C@H](C)[C@H](NC(=O)N1CCC2(CC1)C(=O)N(c1cccc(F)c1)C2c1ccc(Cl)cc1)C(N)=O (stereo partly shown) | 965 nM |
| CC[C@H](C)[C@H](NC(=O)N1CCC2(CC1)C(=O)N(c1cncnc1)C2c1ccccn1)C(=O)OC (stereo partly shown) | 2610 nM |
| CC[C@H](C)[C@H](NC(=O)N1CCC2(CC1)C(=O)N(c1cccc(F)c1)C2c1ccc(Cl)cc1)C(=O)NC (stereo partly shown) | 182 nM |
| CCC(C)[C@H](NC(=O)N1CCC2(CC1)C(=O)N(c1ccc(F)c(Cl)c1)C2c1ccc(-c2ccccc2)cn1)C(=O)OC (stereo partly shown) | 84 nM |
| C[C@H](NC(=O)N1CCC2(CC1)C(=O)N(c1cncnc1)C2c1cccnc1)c1ccc(F)cc1 (stereo partly shown) | 2590 nM |
| CC[C@H](C)[C@H](NC(=O)N1CCC2(CC1)C(=O)N(c1cccc(F)c1)C2c1ccc(Cl)cc1)C(=O)OC (single isomer, unassigned) | 57 nM |
| N#Cc1cccc(N2C(=O)C3(CCN(C(=O)Nc4cc(F)cc(F)c4)CC3)C2c2ccccn2)c1 (stereo not shown) [drawing 586] | 247 nM |
| CC(NC(=O)N1CCC2(CC1)C(=O)N(c1cccc(F)c1)C2c1ccc(Cl)cc1)c1ccncc1 (stereo not shown) | 694 nM |
| C[C@H](NC(=O)N1CCC2(CC1)C(=O)N(c1cccc(F)c1)C2c1ccc(Cl)cc1)c1ccccc1 (stereo partly shown) | 139 nM |
| C[C@@H](NC(=O)N1CCC2(CC1)C(=O)N(c1cccc(F)c1)C2c1ccc(Cl)cc1)c1ccc(F)cc1 (stereo partly shown) | 675 nM |
| COC(=O)[C@H](COC(C)(C)C)NC(=O)N1CCC2(CC1)C(=O)N(c1cccc(F)c1)C2c1ccc(Cl)cc1 (stereo partly shown) | 251 nM |
| O=C(Nc1cccc(C(F)(F)F)c1)N1CCC2(CC1)C(=O)N(c1cccc(Cl)c1)C2c1ccccn1 (stereo not shown) [drawing 564] | 19.5 nM |
| O=C(Nc1cc(F)cc(F)c1)N1CCC2(CC1)C(=O)N(c1cncc(F)c1)C2c1ccccn1 (stereo not shown) | 2100 nM |
| N#Cc1cccc(N2C(=O)C3(CCN(C(=O)Nc4cccc(C(F)(F)F)c4)CC3)C2c2ccccn2)c1 (stereo not shown) [drawing 568] | 51 nM |
| N#Cc1cccc(NC(=O)N2CCC3(CC2)C(=O)N(c2cncc(Cl)c2)C3c2ccccn2)c1 (stereo not shown) | 1480 nM |
| C[C@H](NC(=O)N1CCC2(CC1)C(=O)N(c1cccc(Cl)c1)C2c1cccnc1)c1ccc(F)cc1 (stereo partly shown) [drawing 637] | 669 nM |
| CS(=O)(=O)c1ccccc1N1C(=O)C2(CCN(C(=O)Nc3cc(F)cc(F)c3)CC2)C1c1ccc(Cl)cc1 (stereo not shown) | 94 nM |
| CC[C@H](C)[C@H](NC(=O)N1CCC2(CC1)C(=O)N(c1cccc(Cl)c1)C2c1cccnc1)C(=O)OC (stereo partly shown) [drawing 640] | 880 nM |
| N#Cc1cncc(N2C(=O)C3(CCN(C(=O)Nc4cc(F)cc(F)c4)CC3)C2c2ccccn2)c1 (stereo not shown) | 2380 nM |
| O=C(Nc1cccc(C(F)(F)F)c1)N1CCC2(CC1)C(=O)N(c1cccc(Cl)c1)C2c1ccccn1 (stereo not shown) [drawing 563] | 95.5 nM |
| C[C@H](NC(=O)N1CCC2(CC1)C(=O)N(c1cccc(F)c1)C2c1ccc(Cl)cc1)c1ccc(F)cc1 (stereo partly shown) | 82 nM |

| Structure (SMILES) | IC50 |
| --- | --- |
| N#Cc1cccc(NC(=O)N2CCC3(CC2)C(=O)N(c2cccc(Cl)c2)C3c2cccnc2)c1 (stereo not shown) [drawing 643] | 1660 nM |
| O=C(NCc1ccccc1F)N1CCC2(CC1)C(=O)N(c1cccc(F)c1)C2c1ccc(Cl)cc1 (stereo not shown) | 269 nM |
| N#Cc1cc(F)cc(NC(=O)N2CCC3(CC2)C(=O)N(c2ccc(F)c(Cl)c2)C3c2ccccn2)c1 (stereo not shown) [drawing 565] | 17.5 nM |
| N#Cc1cncc(N2C(=O)C3(CCN(C(=O)Nc4cccc(C(F)(F)F)c4)CC3)C2c2ccccn2)c1 (stereo not shown) | 1260 nM |
| N#Cc1cccc(NC(=O)N2CCC3(CC2)C(=O)N(c2cccc(Cl)c2)C3c2cccnc2)c1 (stereo not shown) [drawing 634] | 124 nM |
| O=C(Nc1cc(F)cc(F)c1)N1CCC2(CC1)C(=O)N(c1cncc(Cl)c1)C2c1ccccn1 (stereo not shown) | 518 nM |
| CC(C)CN1C(=O)C2(CCN(C(=O)N[C@@H](C)c3ccc(F)cc3)CC2)C1c1ccc(Cl)cc1 (stereo partly shown) | 1830 nM |
| O=C(Nc1cccc(Cl)c1)N1CCC2(CC1)C(=O)N(c1ccc(F)c(Cl)c1)C2c1ccccn1 (stereo not shown) | 185 nM |
| N#Cc1cccc(NC(=O)N2CCC3(CC2)C(=O)N(c2ccc(F)c(Cl)c2)C3c2ccccn2)c1 (stereo not shown) | 358 nM |
| C[C@H](NC(=O)N1CCC2(CC1)C(=O)N(c1cccc(Cl)c1)C2c1cccnc1)c1ccc(F)cc1 (stereo partly shown) [drawing 611] | 225 nM |
| O=C(Nc1cc(F)cc(F)c1)N1CCC2(CC1)C(=O)N(c1ccc(F)c(Cl)c1)C2c1ccc(Br)cn1 (stereo not shown) | 52.5 nM |
| C[C@H](NC(=O)N1CCC2(CC1)C(=O)N(c1cncnc1)C2c1ccc(Cl)cc1)c1ccc(F)cc1 (stereo partly shown) | 2330 nM |
| CC(NC(=O)N1CCC2(CC1)C(=O)N(c1cccc(F)c1)C2c1ccc(Cl)cc1)c1cccnc1 (stereo not shown) | 2460 nM |
| CCC(C)[C@H](NC(=O)N1CCC2(CC1)C(=O)N(c1ccc(F)c(Cl)c1)C2c1ccc(C#N)cn1)C(=O)OC (stereo partly shown) | 260 nM |
| O=C(Nc1cc(F)cc(F)c1)N1CCC2(CC1)C(=O)N(c1cccc(Cl)c1)C2c1cccnc1 (stereo not shown) [drawing 636] | 420 nM |
| CCC(C)[C@H](NC(=O)N1CCC2(CC1)C(=O)N(c1ccc(F)c(Cl)c1)C2c1ccc(Br)cn1)C(=O)OC (stereo partly shown) | 100 nM |
| CCC(C)[C@H](NC(=O)N1CCC2(CC1)C(=O)N(c1ccc(F)c(Cl)c1)C2c1ccc(-c2cccnc2)cn1)C(=O)OC (stereo partly shown) | 577 nM |
| CC[C@H](C)[C@H](NC(=O)N1CCC2(CC1)C(=O)N(c1ccccc1S(C)(=O)=O)C2c1ccc(Cl)cc1)C(=O)OC (stereo partly shown) | 109 nM |
| N#Cc1cccc(N2C(=O)C3(CCN(C(=O)Nc4cccc(C(F)(F)F)c4)CC3)C2c2ccccn2)c1 (stereo not shown) [drawing 567] | 371 nM |
| CC[C@H](C)[C@H](NC(=O)N1CCC2(CC1)C(=O)N(c1cccc(F)c1)C2c1ccc(Cl)cc1)C(=O)OC(C)C (stereo partly shown) | 45 nM |
| O=C(Nc1cccc(F)c1)N1CCC2(CC1)C(=O)N(c1ccc(F)c(Cl)c1)C2c1ccccn1 (stereo not shown) | 371 nM |

| Structure (SMILES) | IC50 |
| --- | --- |
| N#Cc1cccc(NC(=O)N2CCC3(CC2)C(=O)N(c2cccc(C#N)c2)C3c2ccccn2)c1 (stereo not shown) [drawing 594] | 1170 nM |
| C[C@H](NC(=O)N1CCC2(CC1)C(=O)N(c1ccccc1S(C)(=O)=O)C2c1ccc(Cl)cc1)c1ccc(F)cc1 (stereo partly shown) | 611 nM |
| O=C(Nc1cccc(C(F)(F)F)c1)N1CCC2(CC1)C(=O)N(c1ccc(F)c(Cl)c1)C2c1ccccn1 (stereo not shown) [drawing 560] | 4.33 nM |
| CC[C@H](C)[C@H](NC(=O)N1CCC2(CC1)C(=O)N(c1cccc(Cl)c1)C2c1ccccn1)C(=O)OC (stereo partly shown) [drawing 571] | 584 nM |
| C[C@H](NC(=O)N1CCC2(CC1)C(=O)N(c1cncc(Cl)c1)C2c1ccccn1)c1ccc(F)cc1 (stereo partly shown) | 3240 nM |
| CC(NC(=O)N1CCC2(CC1)C(=O)N(c1cccc(Cl)c1)C2c1ccccn1)c1ccc(F)cc1 (stereo not shown) [drawing 576] | 191 nM |
| N#Cc1cccc(NC(=O)N2CCC3(CC2)C(=O)N(c2cccc(C#N)c2)C3c2ccccn2)c1 (stereo not shown) [drawing 593] | 2910 nM |
| O=C(NCc1cccc(F)c1)N1CCC2(CC1)C(=O)N(c1cccc(F)c1)C2c1ccc(Cl)cc1 (stereo not shown) | 538 nM |
| C[C@H](NC(=O)N1CCC2(CC1)C(=O)N(c1cncnc1)C2c1ccccn1)c1ccc(F)cc1 (stereo partly shown) | 2010 nM |
| N#Cc1cccc(N2C(=O)C3(CCN(C(=O)Nc4cc(F)cc(F)c4)CC3)C2c2ccccn2)c1 (stereo not shown) [drawing 585] | 732 nM |
| O=C(NCc1ccccn1)N1CCC2(CC1)C(=O)N(c1cccc(F)c1)C2c1ccc(Cl)cc1 (stereo not shown) | 1330 nM |
| O=C(Nc1cc(F)cc(F)c1)N1CCC2(CC1)C(=O)N(c1ccccn1)C2c1ccccn1 (stereo not shown) | 1160 nM |
| CC(NC(=O)N1CCC2(CC1)C(=O)N(c1cccc(Cl)c1)C2c1ccccn1)c1ccc(F)cc1 (stereo not shown) [drawing 575] | 745 nM |
| O=C(Nc1cc(F)cc(F)c1)N1CCC2(CC1)C(=O)N(c1cccc(Cl)c1)C2c1cccnc1 (stereo not shown) [drawing 635] | 21 nM |
| O=C(Nc1cc(F)cc(F)c1)N1CCC2(CC1)C(=O)N(c1cccc(Cl)c1)C2c1cccc[n+]1O (stereo not shown) | 157 nM |
| O=C(Nc1cccc(C(F)(F)F)c1)N1CCC2(CC1)C(=O)N(c1cncc(Cl)c1)C2c1ccccn1 (stereo not shown) [drawing 562] | 155 nM |
| O=C(Nc1cc(F)cc(F)c1)N1CCC2(CC1)C(=O)N(c1cccc(F)c1)C2c1ccc(Cl)cc1 (single isomer, unassigned) | 390 nM |
| CC(NC(=O)N1CCC2(CC1)C(=O)N(c1cccc(F)c1)C2c1ccc(Cl)cc1)c1ccccn1 (stereo not shown) | 2170 nM |
| CC[C@H](C)[C@@H](C#N)NC(=O)N1CCC2(CC1)C(=O)N(c1cccc(F)c1)C2c1ccc(Cl)cc1 (stereo partly shown) | 35 nM |

Source: patent US20080076751A1, “Azetidinone Derivatives and Methods of Use Thereof” (priority 2006, published 2008)
